13 molecules from patent publication US20250197357A1, “PPARG INVERSE AGONISTS AND USES THEREOF” (Flare Therapeutics Inc., priority 2022, published 2025) can be followed below.

The target of assay [1] is T1, PPARG/RXRA LBD heterodimer (Homo sapiens, UniProt P37231).
T1 construct: 2 nM WT PPARG LBD (e. coli expressed, His-TEV-Q203-Y477); fused on or other part: N-terminal His tag with TEV site on the PPARG LBD
The experiment in a line: PPARγ-NCOR1 recruitment assay (TR-FRET). The format is binding. The conditions noted are these: NCOR1 ID2 peptide, 80 nM Rosiglitazone, 3 hours, read-out: PPARG - NCOR recruitment assay EC50. Here is the method:
Compound potency (EC50) and maximal extent of NCOR1 recruitment to PPARG were assessed a TR-FRET binding assay measuring association of a biotinylated NCOR1 ID2 peptide (Biotin-[…]-amide) to PPARG/RXRA LBD heterodimer. Specifically, a 20 microliters of TR-FRET master mix consisting of 2 nM WT PPARG LBD (e. coli expressed, His-TEV-Q203-Y477; Uniprot ID P37231-2), 2 nM WT RXRA LBD or mutant S427F RXRA LBD (e. coli expressed, Flag-TEV-E228-T462; […]. Mixtures were incubated for 3 hours and read in an EnVision plate reader (Perkin Elmer) with Ex/Em 615/665. To determine the potency (EC50) and extent of NCOR1 recruitment, TR-FRET ratios were normalized to the average ratio of DMSO control wells (0%) and to the average maximum ratio for positive control compound (T0070907 (2-chloro-5-nitro-N-4-pyridinyl-benzamide); defined as 100%) in CDD Vault and analyzed using the Levenberg-Marquardt algorithm.
T1 sequence (O75376 2251-2273 limits assumed, one chain of several, further chain): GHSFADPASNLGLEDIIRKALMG

Assay [2] concerns ANGPTL4, a PPARG target gene, in HT1197 (RXRA S427F mutation) cells. The experiment in a line: Bladder cancer pharmacodynamic assay (HT1197 cell assay, qPCR of PPARG target genes). The format is cell-based. The conditions noted are these: Homo sapiens, 100 nM compound, 24 hours, relative to DMSO control. Here is the method: 5637 (PPARG amplified) and HT1197 (RXRA S427F mutation) cells were used for assessment of modulation of PPARG target genes using quantitative PCR. Cells were treated for 24 hours with PPARG inverse agonists prior to analysis of FABP4 (IDT, Cat: Hs.PT 58.20106818) and ANGPTL4 (IDT, Cat: Hs.PT 58.25480012) expression, with expression of the housekeeping gene TBP (IDT, Cat: Hs.PT 58v.39858774) used to normalize expression across samples. Quantitative PCR was performed using an ABI QuantStudio 7 Flex Reaction system. Data were analyzed and reported relative to DMSO control using the comparative Ct method (ΔΔCt).

The target of assay [3] is T2, PPARG/RXRA LBD heterodimer (Homo sapiens, UniProt P37231).
T2 construct: His-TEV-Q203-Y477; Uniprot ID P37231-2; made in house; host or cells: E. coli
T2 sequence (P37231 203-477 isoform P37231-2): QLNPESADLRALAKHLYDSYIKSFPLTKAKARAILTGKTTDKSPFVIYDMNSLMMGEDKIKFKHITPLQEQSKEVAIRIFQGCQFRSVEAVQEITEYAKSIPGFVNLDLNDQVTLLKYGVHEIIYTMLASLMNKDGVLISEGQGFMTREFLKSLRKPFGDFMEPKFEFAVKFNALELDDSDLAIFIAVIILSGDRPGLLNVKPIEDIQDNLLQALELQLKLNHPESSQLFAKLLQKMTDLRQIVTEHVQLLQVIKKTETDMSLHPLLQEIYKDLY
T2 sequence (P19793 228-462 partner limits assumed): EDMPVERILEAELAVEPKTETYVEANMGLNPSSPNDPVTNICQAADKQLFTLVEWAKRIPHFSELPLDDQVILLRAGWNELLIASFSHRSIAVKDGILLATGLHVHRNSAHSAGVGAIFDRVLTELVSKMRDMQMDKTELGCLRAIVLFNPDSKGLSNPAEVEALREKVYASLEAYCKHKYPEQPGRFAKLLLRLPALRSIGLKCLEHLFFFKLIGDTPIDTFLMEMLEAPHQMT
In words: PPARγ-MED1 blockade assay (TR-FRET). The format is binding. The conditions noted are these: MED1 LxxLL peptide, 80 nM Rosiglitazone, 3 hours. The procedure:
Compound potency (IC50) and maximal extent of MED1 repulsion to PPARG were assessed a TR-FRET binding assay measuring association of a biotinylated MED1 LxxLL peptide (Biotin—[…]-amide) to PPARG/RXRA LBD heterodimer. Specifically, a 20 microliters of TR-FRET master mix consisting of 2 nM WT PPARG LBD (e. coli expressed, His-TEV-Q203-Y477; Uniprot ID P37231-2), 2 nM WT RXRA LBD (e. coli expressed, Flag-TEV-E228-T462; […]. Mixtures were incubated for 3 hours and read in an EnVision plate reader (Perkin Elmer) with Ex/Em 615/665. To determine the potency (IC50) and extent of MED1 repulsion, TR-FRET ratios were normalized to the average ratio of DMSO control wells (0%) and to the average minimum ratio for positive control compound (GW9662 (2-chloro-5-nitrobenzanilide); defined as 100%) in CDD Vault and analyzed using the Levenberg-Marquardt algorithm.

In the case of `CS(=O)(=O)c1ccc(C#N)cc1C(=O)Nc1ccc2ccncc2c1` [Example 22, 5-cyano-N-(isoquinolin-7-yl)-2-(methylsulfonyl) benzamide], the EC50 in assay [1] and in assay [3] was greater than 10 µM throughout. In assay [2], the inhibition at 0.1 µM was determined as 0%.

`CS(=O)(=O)c1ccc(C#N)cc1C(=O)Nc1cc(F)c(-c2ccc3c(c2)C(=O)NC3)c(F)c1` [Example 23, 5-cyano-N-(3,5-difluoro-4-(3-oxoisoindolin-5-yl)phenyl)-2-(methylsulfonyl) benzamide]: the EC50 in assay [1] and in assay [3] was 0.01 to 0.1 µM each time. For the same molecule, in assay [2], the inhibition at 0.1 µM is 19%.

Take `N#Cc1ccc(SC(F)(F)F)c(C(=O)Nc2ccnc(C(F)(F)F)c2)c1` [Example 24, 5-cyano-N-(2-(trifluorometh-yl)pyridin-4-yl)-2-((trifluorometh-yl)thio)benzamide]: the EC50 in assay [1] and in assay [3] was 1 to 10 µM each time. Also, in assay [2], the inhibition at 0.1 µM is 49%.

Turning to `CS(=O)(=O)c1ccc(C#N)cc1C(=O)Nc1cc(F)cc(C#N)c1` [Example 25, 5-cyano-N-(3-cyano-5-fluorophenyl)-2-(methylsulfonyl) benzamide], the EC50 in assay [1] and in assay [3] was 0.1 to 1 µM in each case. Besides, the inhibition at 0.1 µM in assay [2] amounted to 77%.

Take `N#Cc1ccc(SC(F)(F)F)c(C(=O)Nc2cc(F)cc(Oc3ccc(Cl)cc3)c2)c1` [Example 26, N-(3-(4-chlorophenoxy)-5-fluorophenyl)-5-cyano-2-((trifluorometh-yl)thio)benzamide]: the EC50 in assay [1] and in assay [3] was 0.1 to 1 µM throughout. Further, the inhibition at 0.1 µM in assay [2] is -160%.

Regarding `CN1Cc2ccc(-c3c(F)cc(NC(=O)c4cc(C#N)ccc4SC(F)(F)F)cc3F)cc2C1=O` [Example 27, 5-cyano-N-(3,5-difluoro-4-(2-methyl-3-oxoisoindolin-5-yl)phenyl)-2-((trifluorometh-yl)thio)benzamide], the EC50 in assay [1] and in assay [3] was 0.1 to 1 µM each time. The inhibition at 0.1 µM in assay [2] came out at 79%.

Consider `Cn1cc(-c2c(F)cc(NC(=O)c3cc(C#N)ccc3S(C)(=O)=O)cc2F)cn1` [Example 28, 5-cyano-N-(3,5-difluoro-4-(1-methyl-1H-pyrazol-4-yl)phenyl)-2-(methylsulfonyl) benzamide], for which the EC50 in assay [1] and in assay [3] was 0.1 to 1 µM in each case. For the same molecule, the inhibition at 0.1 µM in assay [2] was determined as 72%.

On to `Cn1cc(-c2c(F)cc(NC(=O)c3cc(C#N)ccc3SC(F)(F)F)cc2F)cn1` [Example 29, 5-cyano-N-(3,5-difluoro-4-(1-methyl-1H-pyrazol-4-yl)phenyl)-2-((trifluorometh-yl)thio)benzamide], for which the EC50 in assay [1] and in assay [3] was 0.1 to 1 µM in each case. Moreover, the inhibition at 0.1 µM in assay [2] came out at 65%.

In the case of `Cc1cc(NC(=O)c2cc(C#N)ccc2S(C)(=O)=O)cnc1C(F)(F)F` [Example 30, 5-cyano-N-(5-methyl-6-(trifluorometh-yl)pyridin-3-yl)-2-(methylsulfonyl) benzamide], the EC50 in assay [1] and in assay [3] was 1 to 10 µM throughout. Further, the inhibition at 0.1 µM in assay [2] turned out to be 42%.

On to `CS(=O)(=O)c1cnc(C#N)cc1C(=O)Nc1cc(F)cc(F)c1` [Example 31, 2-cyano-N-(3,5-difluorophenyl)-5-(methylsulfonyl)isonicotinamide], for which the EC50 in assay [1] and in assay [3] was 0.01 to 0.1 µM throughout. Further, the inhibition at 0.1 µM in assay [2] was determined as 72%.

As for `CS(=O)(=O)c1cnc(C#N)cc1C(=O)Nc1ccnc(C(F)(F)F)c1` [Example 32, 2-cyano-5-(methylsulfonyl)-N-(2-(trifluoromethyl)py-ridin-4-yl)isonicotinamide], the EC50 in assay [1] and in assay [3] was 0.1 to 1 µM in each case. In addition, in assay [2], the inhibition at 0.1 µM is 80%.

With `N#Cc1ccc(S(=O)(=O)CC(F)(F)F)c(C(=O)Nc2cc(F)cc(F)c2)c1` [Example 33, 5-cyano-N-(3,5-difluorophenyl)-2-((2,2,2-trifluoroethyl)sulfonyl)benzamide], the EC50 in assay [1] and in assay [3] was 1 to 10 µM in each case. Further, the inhibition at 0.1 µM in assay [2] stood at 19%.

In the case of `N#Cc1cc(C(=O)Nc2cc(F)cc(F)c2)c(S(=O)(=O)CC(F)(F)F)cn1` [Example 34, 2-cyano-N-(3,5-difluorophenyl)-5-((2,2,2-trifluoroethyl)sulfonyl) isonicotinamide], the EC50 in assay [1] and in assay [3] was 0.1 to 1 µM each time. Besides, the inhibition at 0.1 µM in assay [2] came to 59%.
